Measurements from patent publication US9850256B2, “Antibacterial basic biaromatic derivatives with aminoalkoxy substitution” (priority 2014, dated 2017).
Values after ≈ are worked out from the molar mass of the structure shown.

Columns and labels:
Assay in all cases: Bacterial growth minimal inhibitory concentration (microdilution, cation-adjusted Mueller-Hinton Broth)
S. aureus A798 = type: cell-based, Staphylococcus aureus; conditions: Staphylococcus aureus, A798; multiply-resistant strain (methicillin- and quinolone-resistant)
Method in brief: (§1)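 Broth microdilution in cation-adjusted Mueller-Hinton Broth per CLSI M7-A7; MICs in mg/L. S. aureus A798 is methicillin- and quinolone-resistant, K. pneumoniae T6474 penicillin-, cephalosporin- and quinolone-resistant; E. coli ATCC25922 and P. aeruginosa ATCC 27853 are quinolone-sensitive.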

K. pneumoniae T6474 = type: cell-based, Klebsiella pneumoniae; conditions: Klebsiella pneumoniae, T6474; multiply-resistant strain (penicillin-, cephalosporin- and quinolone-resistant)
Method in brief: as §1

P. aeruginosa ATCC 27853 = type: cell-based, Pseudomonas aeruginosa; conditions: Pseudomonas aeruginosa, ATCC27853; quinolone-sensitive strain
Method in brief: as §1

E. coli ATCC25922 = type: cell-based; conditions: Escherichia coli, ATCC25922; quinolone-sensitive strain
Method in brief: as §1

Row | SMILES | MIC (S. aureus A798) | MIC (K. pneumoniae T6474) | MIC (P. aeruginosa ATCC 27853) | MIC (E. coli ATCC25922)
1 | CN1CC(COc2cccc(-c3cccc(CNCC[C@H]4CN(c5ccc6c(n5)NC(=O)CO6)C(=O)O4)c3)n2)C1 [Example $113, 6-[(S)-5-(2-{3-[6-(1-methyl-azetidin-3-ylmethoxy)-pyridin-2-yl]-benzylamino}-ethyl)-2-oxo-oxazolidin-3-yl]-4H-pyrido[3,2-b][1,4]oxazin-3-one] | 0.5 µg/mL (≈ 0.918 µM) | 2 µg/mL (≈ 3.67 µM) | 2 µg/mL (≈ 3.67 µM) | 2 µg/mL (≈ 3.67 µM)
2 | O=C1COc2ccc(N3C[C@H](CCNCc4cccc(-c5cc(OC6CNC6)cnn5)c4)OC3=O)nc2N1 [Example $114, 6-[(S)-5-(2-{3-[5-(azetidin-3-yloxy)-pyridazin-3-yl]-benzylamino}-ethyl)-2-oxo-oxazolidin-3-yl]-4H-pyrido[3,2-b][1,4]oxazin-3-one] | 16 µg/mL (≈ 30.9 µM) | 8 µg/mL (≈ 15.5 µM) | 1 µg/mL (≈ 1.93 µM) | 4 µg/mL (≈ 7.73 µM)
3 | O=C1COc2ccc(N3C[C@H](CCNCc4cccc(-c5nccc(O[C@@H]6CCNC6)n5)c4)OC3=O)nc2N1 [Example $115, 6-[(S)-2-oxo-5-(2-{3-[4-((R)-pyrrolidin-3-yloxy)-pyrimidin-2-yl]-benzylamino}-ethyl)-oxazolidin-3-yl]-4H-pyrido[3,2-b][1,4]oxazin-3-one] | 4 µg/mL (≈ 7.52 µM) | 16 µg/mL (≈ 30.1 µM) | 2 µg/mL (≈ 3.76 µM) | 4 µg/mL (≈ 7.52 µM)
4 | O=C1COc2ccc(N3C[C@H](CCNCc4cccc(-c5cc(O[C@@H]6CCNC6)ncn5)c4)OC3=O)nc2N1 [Example $116, 6-[(S)-2-oxo-5-(2-{3-[6-((R)-pyrrolidin-3-yloxy)-pyrimidin-4-yl]-benzylamino}-ethyl)-oxazolidin-3-yl]-4H-pyrido[3,2-b][1,4]oxazin-3-one] | 4 µg/mL (≈ 7.52 µM) | 8 µg/mL (≈ 15 µM) | 2 µg/mL (≈ 3.76 µM) | 2 µg/mL (≈ 3.76 µM)
5 | O=C1COc2ccc(N3C[C@H](CCNCc4cccc(-c5cccc(O[C@@H]6CCNC6)n5)c4)OC3=O)nc2N1 [Example $118, 6-[(S)-2-oxo-5-(2-{3-[6-((R)-pyrrolidin-3-yloxy)-pyridin-2-yl]-benzylamino}-ethyl)-oxazolidin-3-yl]-4H-pyrido[3,2-b][1,4]oxazin-3-one] | 2 µg/mL (≈ 3.77 µM) | 2 µg/mL (≈ 3.77 µM) | 1 µg/mL (≈ 1.88 µM) | 1 µg/mL (≈ 1.88 µM)
6 | O=C1COc2ccc(N3C[C@H](CCNCc4cccc(-c5cccc(O[C@H]6CCNC6)n5)c4)OC3=O)nc2N1 [Example $119, 6-[(S)-2-oxo-5-(2-{3-[6-((S)-pyrrolidin-3-yloxy)-pyridin-2-yl]-benzylamino}-ethyl)-oxazolidin-3-yl]-4H-pyrido[3,2-b][1,4]oxazin-3-one] | 0.5 µg/mL (≈ 0.942 µM) | 1 µg/mL (≈ 1.88 µM) | 0.5 µg/mL (≈ 0.942 µM) | 1 µg/mL (≈ 1.88 µM)
7 | O=C1COc2ccc(N3C[C@H](CCNCc4cccc(-c5cccc(OC[C@H]6CCN6)n5)c4)OC3=O)nc2N1 [Example $124, 6-[(S)-5-(2-{3-[6-((R)-1-azetidin-2-ylmethoxy)-pyridin-2-yl]-benzylamino}-ethyl)-2-oxo-oxazolidin-3-yl]-4H-pyrido[3,2-b][1,4]oxazin-3-one] | 1 µg/mL (≈ 1.88 µM) | 2 µg/mL (≈ 3.77 µM) | 0.5 µg/mL (≈ 0.942 µM) | 1 µg/mL (≈ 1.88 µM)
8 | CN1CC[C@@H]1COc1cccc(-c2cccc(CNCC[C@H]3CN(c4ccc5c(n4)NC(=O)CO5)C(=O)O3)c2)n1 [Example $125, 6-[(S)-5-(2-{3-[6-((R)-1-methyl-azetidin-2-ylmethoxy)-pyridin-2-yl]-benzylamino}-ethyl)-2-oxo-oxazolidin-3-yl]-4H-pyrido[3,2-b][1,4]oxazin-3-one] | 0.5 µg/mL (≈ 0.918 µM) | 2 µg/mL (≈ 3.67 µM) | 4 µg/mL (≈ 7.34 µM) | 1 µg/mL (≈ 1.84 µM)
9 | CN1CCC(Oc2cccc(-c3cccc(CNCC[C@H]4CN(c5ccc6c(n5)NC(=O)CO6)C(=O)O4)c3)n2)CC1 [Example $127, 6-[(S)-5-(2-{3-[6-(1-methyl-piperidin-4-yloxy)-pyridin-2-yl]-benzylamino}-ethyl)-2-oxo-oxazolidin-3-yl]-4H-pyrido[3,2-b][1,4]oxazin-3-one] | 1 µg/mL (≈ 1.79 µM) | 8 µg/mL (≈ 14.3 µM) | 4 µg/mL (≈ 7.16 µM) | 2 µg/mL (≈ 3.58 µM)
10 | CN1CC[C@H](Oc2cccc(-c3ccnc(CNCC[C@H]4CN(c5ccc6c(n5)NC(=O)CO6)C(=O)O4)c3)n2)C1 [Example $128, 6-[(S)-5-(2-{[6-((S)-1-methyl-pyrrolidin-3-yloxy)-[2,4′]bipyridinyl-2′-ylmethyl]-amino}-ethyl)-2-oxo-oxazolidin-3-yl]-4H-pyrido[3,2-b][1,4]oxazin-3-one] | 0.25 µg/mL (≈ 0.458 µM) | 1 µg/mL (≈ 1.83 µM) | 1 µg/mL (≈ 1.83 µM) | 0.5 µg/mL (≈ 0.916 µM)
11 | CN1CC[C@H](Oc2cccc(-c3cccc(CNCC[C@H]4CN(c5ccc6c(n5)NC(=O)CO6)C(=O)O4)n3)n2)C1 [Example $129, 6-[(S)-5-(2-{[6′-((S)-1-methyl-pyrrolidin-3-yloxy)-[2,2′]bipyridinyl-6-ylmethyl]-amino}-ethyl)-2-oxo-oxazolidin-3-yl]-4H-pyrido[3,2-b][1,4]oxazin-3-one] | 2 µg/mL (≈ 3.67 µM) | 4 µg/mL (≈ 7.33 µM) | 8 µg/mL (≈ 14.7 µM) | 4 µg/mL (≈ 7.33 µM)
12 | C[C@H]1C[C@H](Oc2cccc(-c3cccc(CNCC[C@H]4CN(c5ccc6c(n5)NC(=O)CO6)C(=O)O4)c3)n2)CN1 [Example $131, 6-[(S)-5-(2-{3-[6-((3S,5S)-5-methyl-pyrrolidin-3-yloxy)-pyridin-2-yl]-benzylamino}-ethyl)-2-oxo-oxazolidin-3-yl]-4H-pyrido[3,2-b][1,4]oxazin-3-one] | 0.25 µg/mL (≈ 0.459 µM) | 1 µg/mL (≈ 1.84 µM) | 0.5 µg/mL (≈ 0.918 µM) | 0.5 µg/mL (≈ 0.918 µM)
13 | O=C1COc2ccc(N3C[C@H](CCNCc4cccc(-c5cccc(OC[C@H]6CCCN6)n5)c4)OC3=O)nc2N1 [Example $132, 6-[(S)-2-oxo-5-(2-{3-[6-((R)-1-pyrrolidin-2-ylmethoxy)-pyridin-2-yl]-benzylamino}-ethyl)-oxazolidin-3-yl]-4H-pyrido[3,2-b][1,4]oxazin-3-one] | 0.25 µg/mL (≈ 0.459 µM) | 1 µg/mL (≈ 1.84 µM) | 0.5 µg/mL (≈ 0.918 µM) | 0.5 µg/mL (≈ 0.918 µM)
14 | CN1CC[C@H](Oc2ccnc(-c3cccc(CNCC[C@H]4CN(c5ccc6c(n5)NC(=O)CO6)C(=O)O4)c3)n2)C1 [Example $137, 6-[(S)-5-(2-{3-[4-((S)-1-methyl-pyrrolidin-3-yloxy)-pyrimidin-2-yl]-benzylamino}-ethyl)-2-oxo-oxazolidin-3-yl]-4H-pyrido[3,2-b][1,4]oxazin-3-one] | 0.5 µg/mL (≈ 0.916 µM) | 1 µg/mL (≈ 1.83 µM) | 1 µg/mL (≈ 1.83 µM) | 1 µg/mL (≈ 1.83 µM)

The remaining lines, values ahead:

Row | MIC (S. aureus A798) | MIC (K. pneumoniae T6474) | MIC (P. aeruginosa ATCC 27853) | MIC (E. coli ATCC25922) | SMILES
15 | 0.5 µg/mL (≈ 0.918 µM) | 2 µg/mL (≈ 3.67 µM) | 2 µg/mL (≈ 3.67 µM) | 1 µg/mL (≈ 1.84 µM) | CN1CC[C@@H](Oc2cccc(-c3cccc(CNCC[C@H]4CN(c5ccc6c(n5)NC(=O)CO6)C(=O)O4)c3)n2)C1 [Example $120, 6-[(S)-5-(2-{3-[6-((R)-1-methyl-pyrrolidin-3-yloxy)-pyridin-2-yl]-benzylamino}-ethyl)-2-oxo-oxazolidin-3-yl]-4H-pyrido[3,2-b][1,4]oxazin-3-one]
16 | 0.25 µg/mL (≈ 0.459 µM) | 0.5 µg/mL (≈ 0.918 µM) | 1 µg/mL (≈ 1.84 µM) | 0.5 µg/mL (≈ 0.918 µM) | CN1CC[C@H](Oc2cccc(-c3cccc(CNCC[C@H]4CN(c5ccc6c(n5)NC(=O)CO6)C(=O)O4)c3)n2)C1 [Example $121, 6-[(S)-5-(2-{3-[6-((S)-1-methyl-pyrrolidin-3-yloxy)-pyridin-2-yl]-benzylamino}-ethyl)-2-oxo-oxazolidin-3-yl]-4H-pyrido[3,2-b][1,4]oxazin-3-one]
17 | 0.25 µg/mL (≈ 0.471 µM) | 0.5 µg/mL (≈ 0.942 µM) | 0.5 µg/mL (≈ 0.942 µM) | 0.25 µg/mL (≈ 0.471 µM) | CN1CC(Oc2cccc(-c3cccc(CNCC[C@H]4CN(c5ccc6c(n5)NC(=O)CO6)C(=O)O4)c3)n2)C1 [Example $122, 6-[(S)-5-(2-{3-[6-(1-methyl-azetidin-3-yloxy)-pyridin-2-yl]-benzylamino}-ethyl)-2-oxo-oxazolidin-3-yl]-4H-pyrido[3,2-b][1,4]oxazin-3-one]
18 | 0.25 µg/mL (≈ 0.459 µM) | 1 µg/mL (≈ 1.84 µM) | 1 µg/mL (≈ 1.84 µM) | 1 µg/mL (≈ 1.84 µM) | CN1CC[C@H]1COc1cccc(-c2cccc(CNCC[C@H]3CN(c4ccc5c(n4)NC(=O)CO5)C(=O)O3)c2)n1 [Example $123, 6-[(S)-5-(2-{3-[6-((S)-1-methyl-azetidin-2-ylmethoxy)-pyridin-2-yl]-benzylamino}-ethyl)-2-oxo-oxazolidin-3-yl]-4H-pyrido[3,2-b][1,4]oxazin-3-one]
19 | 0.25 µg/mL (≈ 0.448 µM) | 2 µg/mL (≈ 3.58 µM) | 4 µg/mL (≈ 7.16 µM) | 1 µg/mL (≈ 1.79 µM) | CN1CCC[C@H]1COc1cccc(-c2cccc(CNCC[C@H]3CN(c4ccc5c(n4)NC(=O)CO5)C(=O)O3)c2)n1 [Example $130, 6-[(S)-5-(2-{3-[6-((S)-1-methyl-pyrrolidin-2-ylmethoxy)-pyridin-2-yl]-benzylamino}-ethyl)-2-oxo-oxazolidin-3-yl]-4H-pyrido[3,2-b][1,4]oxazin-3-one]
20 | 1 µg/mL (≈ 1.84 µM) | 2 µg/mL (≈ 3.67 µM) | 0.5 µg/mL (≈ 0.918 µM) | 1 µg/mL (≈ 1.84 µM) | O=C1COc2ccc(N3C[C@H](CCNCc4cccc(-c5cccc(OC[C@@H]6CCCN6)n5)c4)OC3=O)nc2N1 [Example $133, 6-[(S)-2-oxo-5-(2-{3-[6-((S)-1-pyrrolidin-2-ylmethoxy)-pyridin-2-yl]-benzylamino}-ethyl)-oxazolidin-3-yl]-4H-pyrido[3,2-b][1,4]oxazin-3-one]
21 | 0.25 µg/mL (≈ 0.435 µM) | 2 µg/mL (≈ 3.48 µM) | 2 µg/mL (≈ 3.48 µM) | 1 µg/mL (≈ 1.74 µM) | COc1cc(O[C@H]2CCN(C)C2)nc(-c2cccc(CNCC[C@H]3CN(c4ccc5c(n4)NC(=O)CO5)C(=O)O3)c2)c1 [Example $136, 6-[(S)-5-(2-{3-[4-methoxy-6-((S)-1-methyl-pyrrolidin-3-yloxy)-pyridin-2-yl]-benzylamino}-ethyl)-2-oxo-oxazolidin-3-yl]-4H-pyrido[3,2-b][1,4]oxazin-3-one]
